The MFC is the smallest concentration meeting the test's criterion for killing the fungus. A low value points to more potent killing. By MIC is commonly meant the least concentration at which growth counts as inhibited. One may read the MIC50 as an inhibitory concentration at the 50% level, which refers to growth in some studies and to a panel of isolates in others. The low end stands for greater potency, the high end for weaker potency. The viability is a per cent measure of how many cells are alive, often set against a control. Broadly, the IC50 is the concentration needed to halve the response being measured. The MIC80 is an inhibitory concentration at the 80% level, which refers to growth in some studies and to a panel of isolates in others.

Data on 5 molecules can be found in paper PMC11279727, “Bioprospecting, Synergistic Antifungal and Toxicological Aspects of the Hydroxychalcones and Their Association with Azole Derivates against Candida spp. for Treating Vulvovaginal Candidiasis” (Pharmaceutics, 2024).

The test system of series [1] is Candida glabrata ATCC 90030. The series can be described thus: In vitro susceptibility, CLSI M27-A3 broth microdilution (MIC/MFC). Type of series: cell-based. As to conditions: Nakaseomyces glabratus, ATCC90030; for MFC: C. glabrata ATCC 90030; for MIC: C. glabrata ATCC 90030, 37 °C 24 h. As for the experimental part: (§1) Susceptibility tests were performed according to the M27-A3 protocol proposed by the Clinical & Laboratory Standards Institute (CLSI) (2008). Briefly, 2-HC and 3′-HC were solubilized in dimethyl sulfoxide at 12.500 g/L and stored at −80 °C. […] The final concentration of 2-HC and 3′-HC in the RPMI medium was 0.24–125.0 mg/L. Dilutions of the compounds were performed in a 96-well microplate at a total volume of 100 μL/well. Fungal suspensions were prepared in 0.85% NaCl and were adjusted to a final concentration of 5 × 10^3 cells/mL. Then, 100 μL of the fungal suspension was added to all wells. Microplates were incubated at 37 °C for 24 h. […] Minimal inhibitory concentration (MIC) was considered the lowest concentration of the drug that inhibited the visible growth of yeast. […] Samples were processed in triplicate, and each experiment was carried out in triplicate.

Series [2] has as its system Candida tropicalis ATCC 750. The series is described as above. The class given is cell-based. The conditions noted are these: for MFC / MIC50: ATCC750, C. tropicalis ATCC 750; for MIC: ATCC750, C. tropicalis ATCC 750, 37 °C 24 h. On the procedure:
as §1

Series [3] concerns Candida albicans ATCC 90028. The description is as above. Type of series: cell-based. The conditions noted are these: for MFC / MIC50: ATCC90028, C. albicans ATCC 90028; for MIC: ATCC90028, C. albicans ATCC 90028, 37 °C 24 h. On the procedure: as §1
The subject of series [4] is Candida parapsilosis ATCC 22019. Described as above. The class given is cell-based. The conditions noted are these: Lodderomyces parapsilosis, ATCC22019; for MFC: C. parapsilosis ATCC 22019; for MIC: C. parapsilosis ATCC 22019, 37 °C 24 h. As for the experimental part: as §1
Series [5] has as its system Candida krusei ATCC 6258. The description is as above. The class given is cell-based. As to conditions: Pichia kudriavzevii, ATCC6258; for MFC / MIC50: C. krusei ATCC 6258; for MIC: C. krusei ATCC 6258, 37 °C 24 h. As for the experimental part: as §1
The nature of series [6]: In vitro cytotoxicity (resazurin, 72 h). The conditions noted are these: human. As for the experimental part:
(§2) Cytotoxicity assays were performed on the C33A cell line (uterine cervical carcinoma epithelium) obtained from the ATCC (Manassas, VA, USA). 5 × 10^4 cells/well were added using RPMI medium with 10% fetal bovine serum into 96-well plates. Cells were incubated at 36.5 °C with 5% CO2 for 24 h to form a cell monolayer. 2-HC and 3′-HC were analyzed in range concentrations from 0.1–75 μg/mL. In combinations, 2-HC and 3′-HC were analyzed from 0.48–31.25 mg/L and 0.48–62.5 mg/L. Cells were exposed for 72 h, and after, cytotoxicity was assessed by adding 100 μL of resazurin (50 μM) and measured by a microplate reader at 570 nm–600 nm. A negative control with untreated cells (100% living cells) and a positive control (DMSO 40% to induce cell death) were also used. The results were evaluated in triplicate independent. […] Selective index (SI) was calculated using SI=IC50/MIC50 .
Background: Resazurin is reduced to fluorescent resorufin, in cell work by metabolically active cells.

For series [7], the system named is C33A cell line (uterine cervical carcinoma epithelium). As to the kind of experiment: In vitro cytotoxicity (resazurin, 72 h). The conditions noted are these: Homo sapiens, C-33-A, 72 h. As for the experimental part: as §2
In series [8] the test system is Candida tropicalis ATCC 750. The series can be described thus: Combinatorial antifungal activity (checkerboard). The class given is cell-based. As to conditions: drug alone in checkerboard; for MIC80 (individual): C. tropicalis; for MIC80: Candida tropicalis, ATCC750, C. tropicalis, read-out: MIC80 (individual). An excerpt:
(§3) Candida albicans ATCC 90028, Candida tropicalis ATCC 750, and Candida krusei ATCC 6258 were used. These species were selected for these assays because C. albicans is the most prevalent etiological agent in fungal infections caused by the genus Candida, and C. tropicalis is the most frequent non-albicans species. C. krusei was used to represent the species most resistant to azole drugs. Thus, 2-HC and 3′-HC were combined with FCZ and CTZ and associated with each other. Their combinatorial antifungal activity was determined through the checkerboard method using 96-well microplates, according to Bellio et al. (2021). […] Microplates were incubated at 37 °C for 24 h. […] The negative control was only the culture medium, and the positive control was composed of microorganisms and the culture medium. […] From this, it was calculated the fractional inhibitory concentration (FIC) and the fractional inhibitory concentration index (FICI) of each well of the interface as follows: […]

For series [9], the system named is Candida albicans ATCC 90028. The series can be described thus: Combinatorial antifungal activity (checkerboard). As to conditions: ATCC90028, C. albicans, drug alone in checkerboard, read-out: MIC80 (individual). The class given is cell-based.
Source text: as §3

For series [10], the system named is Candida krusei ATCC 6258. The series can be described thus: Combinatorial antifungal activity (checkerboard). The class given is cell-based. The conditions noted are these: Pichia kudriavzevii, ATCC6258; C. krusei, drug alone in checkerboard; read-out: MIC80 (individual).
Source text: as §3

The next series concerns C. albicans ATCC 90028. As to the kind of experiment: Therapeutic efficacy in Galleria mellonella infected with C. albicans. The conditions noted are these: for efficacy in the antifungal activity: substances alone at MIC values and LCs, infected larvae. Type of series: in vivo.
Series [11] concerns Paracoccidioides brasiliensis. Also noted: method as in PMID 34790584. As to conditions: cited from earlier work.
Series [12] deals with Mycobacterium tuberculosis and Paracoccidioides brasiliensis mixed biofilm. The arrangement: method as in PMID 34790584. The conditions noted are these: cited from earlier work.
The subject of series [13] is Mycobacterium tuberculosis. The arrangement: method as in PMID 34790584. As to conditions: cited from earlier work.
Another series deals with C33A cell line. The conditions noted are these: in the concentration ranges tested in the combinations. On the procedure:
as §2

Converted amounts (≈) assume the structure as drawn.

Consider `O=C(/C=C/c1ccccc1O)c1ccccc1` [2-HC, 2-hydroxychalcone], for which the MFC in series [1] is greater than 125 µg/mL; in series [2], greater than 125 µg/mL; in series [3], greater than 125 µg/mL; in series [4], 15.6 µg/mL (≈ 69.6 µM); in the series with Candida krusei ATCC 6258 [5], 125 µg/mL (≈ 557 µM). Also, the MIC turned out to be 15.6 µg/mL (≈ 69.6 µM) in series [1]; 31.3 µg/mL (≈ 140 µM) in [2]; 31.3 µg/mL (≈ 140 µM) in [3]; 7.8 µg/mL (≈ 34.8 µM) in series [4]; 7.8 µg/mL (≈ 34.8 µM) with Candida krusei ATCC 6258 [5]. Moreover, the MIC50 was 7.81 µg/mL (≈ 34.8 µM) in series [2], 15.6 µg/mL (≈ 69.7 µM) in series [3] and 15.6 µg/mL (≈ 69.7 µM) against Candida krusei ATCC 6258 [5]. Besides, the viability at 72 h, 9.38 mg/L in series [6] is greater than 80%. Besides, the IC50 in series [7] turned out to be 13 µg/mL. In addition, the “MIC80 (individual)” value in series [8] turned out to be 31.25 µg/mL. Moreover, the values for the MIC80 (in [8]; in [9]; with Candida krusei ATCC 6258 [10]) were 62.5 µg/mL, 31.2 µg/mL and 31.2 µg/mL, respectively. Further, in the series on C. albicans ATCC 90028, the “efficacy in the antifungal activity” value is reported as “did not demonstrate efficacy”.
As for `O=C(/C=C/c1ccccc1)c1cccc(O)c1` [3′-HC, 3′-hydroxychalcone], the MIC in series [11] was 0.97 µg/mL (≈ 4.33 µM); in [1] it was 7.8 µg/mL (≈ 34.8 µM); in series [2], 31.3 µg/mL (≈ 140 µM); in [3], 31.3 µg/mL (≈ 140 µM); in series [4], 15.6 µg/mL (≈ 69.6 µM); with Candida krusei ATCC 6258 [5], 7.8 µg/mL (≈ 34.8 µM). In addition, in series [13], the MIC is 7.8 µg/mL (≈ 34.8 µM). The MFC in series [1] is 31.3 µg/mL (≈ 140 µM); in series [2] it was 125 µg/mL (≈ 557 µM); in [3], greater than 125 µg/mL; in [4] it was 31.3 µg/mL (≈ 140 µM); in the series with Candida krusei ATCC 6258 [5], 31.3 µg/mL (≈ 140 µM). The MIC50 in [2] was found to be 7.81 µg/mL (≈ 34.8 µM); in [3], 15.6 µg/mL (≈ 69.7 µM); against Candida krusei ATCC 6258 [5] it was 7.81 µg/mL (≈ 34.8 µM). Besides, in series [6], the viability at 72 h, 9.38 mg/L was greater than 80%. In addition, the IC50 in series [7] was determined as 11.9 µg/mL. Also, the “MIC80 (individual)” value in series [8] is 31.25 µg/mL. Moreover, the MIC80 was 62.5 µg/mL in series [8], 31.2 µg/mL in series [9] and 15.6 µg/mL with Candida krusei ATCC 6258 [10]. For the same molecule, the “efficacy in the antifungal activity” value in the series with C. albicans ATCC 90028 is “did not demonstrate efficacy”. In addition, the biofilm degradation entry in [12] was “above 50%”.
For `Clc1ccccc1C(c1ccccc1)(c1ccccc1)n1ccnc1` [CTZ, clotrimazole, reference compound], the MFC is greater than 2 µg/mL in [1]; greater than 4 µg/mL in series [2]; greater than 4 µg/mL in series [3]; 0.1 µg/mL (≈ 0.29 µM) in [4]; greater than 4 µg/mL against Candida krusei ATCC 6258 [5]. In addition, the MIC in [1] came to 0.004 µg/mL (≈ 0.0116 µM); in series [2], 0.01 µg/mL (≈ 0.029 µM); in series [3], 0.01 µg/mL (≈ 0.029 µM); in [4], 0.03 µg/mL (≈ 0.087 µM); with Candida krusei ATCC 6258 [5], 0.06 µg/mL (≈ 0.174 µM). The MIC80 in series [8] turned out to be 0.03 µg/mL; in series [9] it was 0.03 µg/mL; in the series on Candida krusei ATCC 6258 [10], 0.13 µg/mL. Also, in the series on C33A cell line, the cytotoxicity result is “did not present cytotoxicity”.
For the molecule `OC(Cn1cncn1)(Cn1cncn1)c1ccc(F)cc1F` [FCZ, Fluconazole, reference compound], the MFC in series [1] was greater than 64 µg/mL; in series [2], greater than 64 µg/mL; in [3] it was greater than 64 µg/mL; in [4], 2 µg/mL (≈ 6.53 µM); against Candida krusei ATCC 6258 [5], 128 µg/mL (≈ 418 µM). For the same molecule, the MIC amounted to 0.5 µg/mL (≈ 1.63 µM) in [1]; 0.5 µg/mL (≈ 1.63 µM) in series [2]; 0.25 µg/mL (≈ 0.816 µM) in series [3]; 1 µg/mL (≈ 3.27 µM) in series [4]; 32 µg/mL (≈ 104 µM) against Candida krusei ATCC 6258 [5]. Also, the MIC80 in series [8] worked out at 0.5 µg/mL; in [9], 0.5 µg/mL; in the series on Candida krusei ATCC 6258 [10] it was 32 µg/mL. Moreover, the “health indexes vs infection control group” value with C. albicans ATCC 90028 (larvae infected with C. albicans ATCC 90028, all doses, FCZ 350 mg/L) is on record as “statistically different from the infection control group”. Besides, the “survival curves vs infection control group” value in the series with C. albicans ATCC 90028 (larvae infected with C. albicans ATCC 90028, treated 1 h after infection, five days, FCZ 350 mg/L) is “statistically different from the infection control group”. Besides, the cytotoxicity result in the series on C33A cell line was “did not present cytotoxicity”.
Consider `C[C@@H]1[C@H](O)[C@@H](C)/C=C/C=C/C=C/C=C/C=C/C=C/C=C/[C@H](O[C@@H]2O[C@H](C)[C@@H](O)[C@H](N)[C@@H]2O)C[C@@H]2O[C@](O)(C[C@@H](O)C[C@@H](O)[C@H](O)CC[C@@H](O)C[C@@H](O)CC(=O)O[C@H]1C)C[C@H](O)[C@H]2C(=O)O` [AMB, amphotericin B, reference compound], for which the MFC in series [1] is 0.5 µg/mL (≈ 0.541 µM); in [2], 1 µg/mL (≈ 1.08 µM); in series [3], 1 µg/mL (≈ 1.08 µM); in series [4], 0.3 µg/mL (≈ 0.325 µM); with Candida krusei ATCC 6258 [5] it was 1 µg/mL (≈ 1.08 µM). In addition, the MIC in series [1] was determined as 0.4 µg/mL (≈ 0.433 µM); in [2], 0.05 µg/mL (≈ 0.0541 µM); in series [3] it was 0.2 µg/mL (≈ 0.216 µM); in series [4], 0.1 µg/mL (≈ 0.108 µM); against Candida krusei ATCC 6258 [5], 0.1 µg/mL (≈ 0.108 µM).
